Values quoted from earlier work as cited in patent US5500433A, “Method of treating drug abuse” (Merrell Pharmaceuticals Inc., priority 1995, dated 1996).

Key:
[1] = test system: preference for alcohol and cocaine; details: rodent
[2] = test system: vascular smooth muscle cells; details: rabbit vascular smooth muscle cells
coronary vessels = details: patients with stable angina
thrombus formation = details: canine models
[3] = test system: phospholipase C mediated hydrolysis of phosphoinositides; details: rabbit vascular smooth muscle cells

## Cc1nc2sccn2c(=O)c1CCN1CCC(=C(c2ccc(F)cc2)c2ccc(F)cc2)CC1 [ritanserin]
[1]
  effect on preference for alcohol and cocaine: abolished the preference for both alcohol and cocaine

## NCCc1c[nH]c2ccc(O)cc12 [serotonin]
[2]
  effect on PDGF induced DNA synthesis: stimulates PDGF induced DNA synthesis
Coronary vessels
  effect on coronary vessel constriction: induced constriction of the coronary vessels in these patients at all concentrations tested

## O=C(c1ccc(F)cc1)C1CCN(CCn2c(=O)[nH]c3ccccc3c2=O)CC1 [Ketanserin]
[2]
  effect on PDGF induced DNA synthesis: inhibited PDGF induced DNA synthesis
Thrombus formation
  prevention of thrombus formation: extremely effective in preventing thrombus formation
[3]
  inhibition of phospholipase C mediated hydrolysis of phosphoinositides: inhibited phospholipase C mediated hydrolysis of phosphoinositides
Coronary vessels
  effect on coronary vessel constriction: blocked coronary vessel constriction
